From US12459902B2, “Crystalline forms of 4-(7-hydroxy-2-isopropyl-4-oxo-4H-quinazolin-3-yl)-benzonitrile and formulations thereof” (priority 2020, dated 2025)
Values after ≈ are worked out from the molar mass of the structure shown.

What was measured:
[1] = Solubility in water; conditions: water at 25° C.
[2] = type: physicochemical
[3] = Water uptake on exposure to moisture (hygroscopicity); type: physicochemical; conditions: for maximum water uptake: up to 95% RH at 25° C.

Structure (SMILES): CC(C)c1nc2cc(O)ccc2c(=O)n1-c1ccc(C#N)cc1 [crystal form M, 4-(7-Hydroxy-2-isopropyl-4-oxo-4H-quinazolin-3-yl)-benzonitrile]
- solubility in water [1]: 40 µg/mL (≈ 131 µM)
- thermodynamic stability relative to crystal form B ([2]; temperature range from 20° C. to 35° C.): thermodynamically more stable than crystal form B
- thermodynamic stability relative to crystal form Q ([2]; temperature range from 22° C. to 35° C.): thermodynamically more stable than crystal form Q
- thermodynamic stability relative to crystal form E ([2]; temperature range from 30° C. to 45° C.): thermodynamically more stable than crystal form E
- hygroscopicity ([3]; 25° C.): non hygroscopic
- maximum water uptake [3]: less than 0.1%

Structure (SMILES): CC(C)c1nc2cc(O)ccc2c(=O)n1-c1ccc(C#N)cc1 [crystal form Q, 4-(7-Hydroxy-2-isopropyl-4-oxo-4H-quinazolin-3-yl)-benzonitrile]
- conversion of equimolar suspension of crystal form M and crystal form Q ([2]; 22° C., 30° C. and 35° C., isopropylacetate, dichloromethane, ethanol or water, 7 days): converted after 7 days completely into crystal form M
- hygroscopicity ([3]; 25° C.): non hygroscopic
- maximum water uptake [3]: less than 0.1%

Structure (SMILES): CC(C)c1nc2cc(O)ccc2c(=O)n1-c1ccc(C#N)cc1 [crystal form E, 4-(7-Hydroxy-2-isopropyl-4-oxo-4H-quinazolin-3-yl)-benzonitrile]
- conversion of equimolar suspension of crystal form M and crystal form E ([2]; 30° C., 35° C. and 45° C., isopropylacetate, dichloromethane, ethanol or water, 7 days): converted after 7 days completely into Modification M

Structure (SMILES): CC(C)c1nc2cc(O)ccc2c(=O)n1-c1ccc(C#N)cc1 [crystal form K′, 4-(7-Hydroxy-2-isopropyl-4-oxo-4H-quinazolin-3-yl)-benzonitrile]
- hygroscopicity ([3]; 25° C.): non-hygroscopic
- maximum water uptake [3]: less than 0.2%

Structure (SMILES): CC(C)c1nc2cc(O)ccc2c(=O)n1-c1ccc(C#N)cc1 [Hydrate HB, 4-(7-Hydroxy-2-isopropyl-4-oxo-4H-quinazolin-3-yl)-benzonitrile]
- additional water uptake above 70% RH ([3]; above 70% RH, at 95% RH, 25° C.): about 2.5%
- water uptake up to 70% RH ([3]; up to 70% RH at 25° C.): slight uptake of water

Structure (SMILES): CC(C)c1nc2cc(O)ccc2c(=O)n1-c1ccc(C#N)cc1 [crystal form B, 4-(7-Hydroxy-2-isopropyl-4-oxo-4H-quinazolin-3-yl)-benzonitrile]
- conversion of equimolar suspension of crystal form B and crystal form M ([2]; 20° C., 30° C. and 35° C., isopropylacetate, dichloromethane, ethanol or water, 7 days): converted after 7 days almost completely into crystal form M
